According to patent publication US9694016B2 (Novartis AG, priority 2013, dated 2017):
Where two headings read alike, the source gives them in different places.

Target: b-Raf (V600E) (Homo sapiens (Human), UniProt P15056, V600E)
Settings: read-out: b-Raf IC-50, AlphaScreen
[1] = 60 min pre-incubation, reaction 3 hours at room temperature
[2] = 60 min pre-incubation, 3 hours reaction

Chain of b-Raf (V600E) (P15056 whole entry V600E): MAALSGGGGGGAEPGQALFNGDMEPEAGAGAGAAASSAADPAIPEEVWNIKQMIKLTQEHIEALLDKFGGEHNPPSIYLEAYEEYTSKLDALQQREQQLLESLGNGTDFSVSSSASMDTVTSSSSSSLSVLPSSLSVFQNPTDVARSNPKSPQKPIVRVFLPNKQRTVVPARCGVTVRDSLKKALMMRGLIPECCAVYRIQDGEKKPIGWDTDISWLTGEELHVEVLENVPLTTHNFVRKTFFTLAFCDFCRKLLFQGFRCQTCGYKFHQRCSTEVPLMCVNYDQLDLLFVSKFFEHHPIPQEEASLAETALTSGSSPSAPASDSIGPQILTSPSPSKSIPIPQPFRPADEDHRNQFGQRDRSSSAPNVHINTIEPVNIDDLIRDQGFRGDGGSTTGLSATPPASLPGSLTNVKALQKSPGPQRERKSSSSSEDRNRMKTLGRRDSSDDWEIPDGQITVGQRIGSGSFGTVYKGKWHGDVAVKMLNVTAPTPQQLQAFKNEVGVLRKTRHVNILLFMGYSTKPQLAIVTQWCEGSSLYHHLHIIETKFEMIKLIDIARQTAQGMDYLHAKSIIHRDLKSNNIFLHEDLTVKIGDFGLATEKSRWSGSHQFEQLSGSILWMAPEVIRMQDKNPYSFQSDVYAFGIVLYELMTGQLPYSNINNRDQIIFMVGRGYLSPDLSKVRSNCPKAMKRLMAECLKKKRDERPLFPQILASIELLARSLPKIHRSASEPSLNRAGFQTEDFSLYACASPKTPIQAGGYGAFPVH

IC50 [1] | IC50 [2] | Structure (SMILES) | further results
9.51 nM | – | Cc1ncc(NC(=O)c2cc(C(C)(C)C#N)ccn2)cc1-c1cnc(OC2CCOCC2)c(N2CCOCC2)c1 [Example 943, 4-(2-cyanopropan-2-yl)-N-(2-methyl-5′-morpholino-6′-((tetrahydro-2H-pyran-4-yl)oxy)-[3,3′-bipyridin]-5-yl)picolinamide] | –
1.18 nM | – | Cc1ccc(NC(=O)c2ccnc(C(F)(F)F)c2)cc1-c1cc(NC2CCOC2)nc(N2CCOCC2)c1 (stereo not drawn) [Example 1054, N-(4-methyl-3-(2-morpholino-6-((tetrahydrofuran-3-yl)amino)pyridin-4-yl)phenyl)-2-(trifluoromethyl)isonicotinamide] | –
12.8 nM | – | Cc1ccc(NC(=O)c2ccnc(C(F)(F)F)c2)cc1-c1c(F)c(NCCO)nc(N2CCOCC2)c1F [Example 1014, N-(3-(3,5-difluoro-2-((2-hydroxyethyl)amino)-6-morpholinopyridin-4-yl)-4-methylphenyl)-2-(trifluoromethyl)isonicotinamide] | –
11.9 nM | – | CCOc1cc(-c2cc(NC(=O)c3ccnc(C(C)(C)O)c3)cnc2C)cc(N2CCOCC2)n1 [Example 1148, N-(2′-ethoxy-2-methyl-6′-morpholino-[3,4′-bipyridin]-5-yl)-2-(2-hydroxypropan-2-yl)isonicotinamide] | –
2.64 nM | – | Cc1ccc(NC(=O)c2ccnc(C(C)C)c2)cc1-c1cc(N2CCOCC2)nc(N2CC(O)C2)c1 [Example 1069, N-(3-(2-(3-hydroxyazetidin-1-yl)-6-morpholinopyridin-4-yl)-4-methylphenyl)-2-isopropylisonicotinamide] | –
5.74 nM | – | Cc1ncc(NC(=O)c2ccnc(C(C)(C)C#N)c2)cc1-c1cnc(OC2CC3(COC3)C2)c(N2CCOCC2)c1 [Example 967, N-(6′-(2-oxaspiro[3.3]heptan-6-yloxy)-2-methyl-5′-morpholino-[3,3′-bipyridin]-5-yl)-2-(2-cyanopropan-2-yl)isonicotinamide] | –
4.35 nM | – | Cc1ncc(NC(=O)c2ccnc(C(F)(F)F)c2)cc1-c1cc(NCCO)nc(N2CCOCC2)c1 [Example 1040, N-(2′-((2-hydroxyethyl)amino)-2-methyl-6′-morpholino-[3,4′-bipyridin]-5-yl)-2-(trifluoromethyl)isonicotinamide] | –
4.43 nM | – | Cc1ccc(NC(=O)c2cc(C(C)(C)F)ccn2)cc1-c1cc(N2CCOCC2)c(=O)n(C)c1 [Example 907, 4-(2-fluoropropan-2-yl)-N-(4-methyl-3-(1-methyl-5-morpholino-6-oxo-1,6-dihydropyridin-3-yl)phenyl)picolinamide] | –
1.56 nM | – | Cc1ccc(NC(=O)c2cncc(C(F)(F)F)c2)cc1-c1cc(N2CCOCC2)c(=O)n(C)n1 [Example 909, N-(4-methyl-3-(1-methyl-5-morpholino-6-oxo-1,6-dihydropyridazin-3-yl)phenyl)-5-(trifluoromethyl)nicotinamide] | –
0.73 nM | – | Cc1ccc(NC(=O)c2ccnc(C(F)(F)F)c2)cc1-c1cc(OCCO)nc(N2CCOCC2)c1 [Example 1156, N-(3-(2-(2-hydroxyethoxy)-6-morpholinopyridin-4-yl)-4-methylphenyl)-2-(trifluoromethyl)isonicotinamide] | –
1.12 nM | – | Cc1ccc(NC(=O)c2cc(C(F)(F)F)ccn2)cc1-c1cc(OCCO)nc(N2CCOCC2)c1 [Example 1163, N-(3-(2-(2-hydroxyethoxy)-6-morpholinopyridin-4-yl)-4-methylphenyl)-4-(trifluoromethyl)picolinamide] | –
71.4 nM | – | Cc1ncc(NC(=O)c2ccnc(C(C)(C)C)c2)cc1-c1cc(N2CCOCC2)nc(N2CC(O)C2)c1 [Example 1089, 2-(tert-butyl)-N-(2′-(3-hydroxyazetidin-1-yl)-2-methyl-6′-morpholino-[3,4′-bipyridin]-5-yl)isonicotinamide] | –
8.02 nM | – | Cc1ncc(NC(=O)c2ccnc(C3(C#N)CC3)c2)cc1-c1cc(N2CCOCC2)nc(N2CC(C)(O)C2)c1 [Example 1109, 2-(1-cyanocyclopropyl)-N-(2′-(3-hydroxy-3-methylazetidin-1-yl)-2-methyl-6′-morpholino-[3,4′-bipyridin]-5-yl)isonicotinamide] | –

The remaining lines, values behind:

Structure (SMILES) | IC50 [1] | IC50 [2] | further results
Cc1ncc(NC(=O)c2ccnc(C(F)F)c2)cc1-c1cc(N2CCOCC2)c(=O)n(C)n1 [Example 680, 2-(difluoromethyl)-N-(6-methyl-5-(1-methyl-5-morpholino-6-oxo-1,6-dihydropyridazin-3-yl)pyridin-3-yl)isonicotinamide] | – | 14.6 nM | –
Cc1ccc(NC(=O)c2cnnc(C(F)(F)F)c2)cc1-c1cc(N2CCOCC2)c(=O)n(C)c1 [Example 361, N-(4-methyl-3-(1-methyl-5-morpholino-6-oxo-1,6-dihydropyridin-3-yl)phenyl)-6-(trifluoromethyl)pyridazine-4-carboxamide] | – | – | IC50 (Table 2, 3 hours reaction): 2.8 nM
Cc1ncc(NC(=O)c2cccc(C(F)(F)F)c2)cc1-c1cc(N2CCOCC2)nc(N2C(=O)OC[C@@H]2C)n1 [Example 781, (S)—N-(6-methyl-5-(2-(4-methyl-2-oxooxazolidin-3-yl)-6-morpholinopyrimidin-4-yl)pyridin-3-yl)-3-(trifluoromethyl)benzamide] | – | 10.8 nM | –
Cc1ccc(NC(=O)c2ccnc(S(C)(=O)=O)c2)cc1-c1cc(N2CCOCC2)n2nccc2n1 [Example 806] | – | 1.1 nM | –
Cc1ncc(NC(=O)c2cccc(C(F)F)c2)cc1-c1cc(N2CCOCC2)c(=O)n(C)n1 [Example 681, 3-(difluoromethyl)-N-(6-methyl-5-(1-methyl-5-morpholino-6-oxo-1,6-dihydropyridazin-3-yl)pyridin-3-yl)benzamide] | – | 3.1 nM | –
Cc1ccc(NC(=O)c2ccnc(C(C)(C)C#N)c2)cc1-c1cc(N2CCOCC2)nc(N2C(=O)OC[C@@H]2C)n1 [Example 782, (S)-2-(2-cyanopropan-2-yl)-N-(4-methyl-3-(2-(4-methyl-2-oxooxazolidin-3-yl)-6-morpholinopyrimidin-4-yl)phenyl)isonicotinamide] | – | 22.3 nM | –
Cc1ncc(NC(=O)c2cccc(C(F)F)c2)cc1-c1cc(N2CCOCC2)c2nccn2c1 [Example 880, 3-(difluoromethyl)-N-(6-methyl-5-(8-morpholinoimidazo[1,2-a]pyridin-6-yl)pyridin-3-yl)benzamide] | 3.2 nM | – | –
Cc1ncc(NC(=O)c2ccnc(C(C)(C)C#N)c2)cc1-c1cc(N2CCOCC2)nc(N2C(=O)OC[C@@H]2C)n1 [Example 784, (S)-2-(2-cyanopropan-2-yl)-N-(6-methyl-5-(2-(4-methyl-2-oxooxazolidin-3-yl)-6-morpholinopyrimidin-4-yl)pyridin-3-yl)isonicotinamide] | – | 200 nM | –
Cc1ncc(NC(=O)c2ccc(F)c(OC(C)C)c2)cc1-c1cc(N2CCOCC2)c(=O)n(C)c1 [Example 396, N-(1′,2-dimethyl-5′-morpholino-6′-oxo-1′,6′-dihydro-[3,3′-bipyridin]-5-yl)-4-fluoro-3-isopropoxybenzamide] | – | – | IC50 (Table 2, 3 hours reaction): 10.8 nM
Cc1ncc(NC(=O)c2cc(C(F)(F)F)ccn2)cc1-c1cnc(OCCO)c(N2CCOCC2)c1 [Example 301, N-(6′-(2-hydroxyethoxy)-2-methyl-5′-morpholino-[3,3′-bipyridin]-5-yl)-4-(trifluoromethyl)picolinamide] | – | – | IC50 (Table 2, 3 hours reaction): 3.2 nM
Cc1ccc(C(=O)Nc2cccc(OC(F)(F)F)c2)cc1-c1cc(N2CCOCC2)c(=O)n(C)c1 [Example 441, 4-methyl-3-(1-methyl-5-morpholino-6-oxo-1,6-dihydropyridin-3-yl)-N-(3-(trifluoromethoxy)phenyl)benzamide] | – | 33.2 nM | –
Cc1ccc(NC(=O)c2ccnc(C(C)(F)F)c2)cc1-c1cc(N2CCOC[C@H]2C)c(=O)n(C)n1 [Example 674, (R)-2-(1,1-difluoroethyl)-N-(4-methyl-3-(1-methyl-5-(3-methylmorpholino)-6-oxo-1,6-dihydropyridazin-3-yl)phenyl)isonicotinamide] | – | 3.7 nM | –
Cc1ccc(C(=O)Nc2cccc(C(F)F)c2)cc1-c1cc(N2CCOCC2)c(=O)n(C)c1 [Example 430, N-(3-(difluoromethyl)phenyl)-4-methyl-3-(1-methyl-5-morpholino-6-oxo-1,6-dihydropyridin-3-yl)benzamide] | – | – | IC50 (Table 2, 3 hours reaction): 1.6 nM
CCOc1ncc(-c2cc(NC(=O)c3cnnc(C(F)(F)F)c3)cnc2C)cc1N1CCOC[C@H]1C [Example 285] | – | – | IC50 (Table 2, 3 hours reaction): 200 nM
Cc1ccc(NC(=O)c2cccc(S(C)(=O)=O)c2)cc1-c1cc(N2CCOCC2)n(C)c(=O)c1 [Example 488, N-(4-methyl-3-(1-methyl-6-morpholino-2-oxo-1,2-dihydropyridin-4-yl)phenyl)-3-(methylsulfonyl)benzamide] | – | 1.9 nM | –
CCNc1nc(-c2cc(NC(=O)c3ccnc(C(C)(C)O)c3)ccc2C)cc(N2CCOCC2)n1 [Example 705, N-(3-(2-(ethylamino)-6-morpholinopyrimidin-4-yl)-4-methylphenyl)-2-(2-hydroxypropan-2-yl)isonicotinamide] | – | 4.1 nM | –
Cc1ccc(NC(=O)c2ccnc(C(C)(C)C#N)c2)cc1-c1cn2ccnc2c(N2CCOCC2)n1 [Example 860, 2-(2-cyanopropan-2-yl)-N-(4-methyl-3-(8-morpholinoimidazo[1,2-a]pyrazin-6-yl)phenyl)isonicotinamide] | 11.6 nM | – | –
COc1nnc(-c2cc(NC(=O)c3ccnc(C4CC4)c3)ccc2C)cc1N1CCOCC1 [Example 550, 2-cyclopropyl-N-(3-(6-methoxy-5-morpholinopyridazin-3-yl)-4-methylphenyl)isonicotinamide] | – | 1.2 nM | –
CCNc1nc(-c2cc(C(=O)Nc3cccc(C(C)(C)C#N)c3)ccc2C)cc(N2CCOCC2)n1 [Example 732, N-(3-(2-cyanopropan-2-yl)phenyl)-3-(2-(ethylamino)-6-morpholinopyrimidin-4-yl)-4-methylbenzamide] | – | 2.2 nM | –
Cc1ncc(NC(=O)c2ccnc(C(C)(F)F)c2)cc1-c1cc(N2CCOC[C@H]2C)n(C)c(=O)c1 [Example 524, (R)-2-(1,1-difluoroethyl)-N-(1′,2-dimethyl-6′-(3-methylmorpholino)-2′-oxo-1′,2′-dihydro-[3,4′-bipyridin]-5-yl)isonicotinamide] | – | 41.2 nM | –
